# Source: patent US20070123508A1, “PAR2-modulating compounds and their use” (priority 2005, published 2007)
# Target: T1, human PAR2 (Homo sapiens, UniProt P55085)
# T1 construct: expressed in transfected cells; host or cells: NIH3T3 cells, transiently transfected; receptor in pSI-derived mammalian expression vector
# T1 sequence (P55085 26-397): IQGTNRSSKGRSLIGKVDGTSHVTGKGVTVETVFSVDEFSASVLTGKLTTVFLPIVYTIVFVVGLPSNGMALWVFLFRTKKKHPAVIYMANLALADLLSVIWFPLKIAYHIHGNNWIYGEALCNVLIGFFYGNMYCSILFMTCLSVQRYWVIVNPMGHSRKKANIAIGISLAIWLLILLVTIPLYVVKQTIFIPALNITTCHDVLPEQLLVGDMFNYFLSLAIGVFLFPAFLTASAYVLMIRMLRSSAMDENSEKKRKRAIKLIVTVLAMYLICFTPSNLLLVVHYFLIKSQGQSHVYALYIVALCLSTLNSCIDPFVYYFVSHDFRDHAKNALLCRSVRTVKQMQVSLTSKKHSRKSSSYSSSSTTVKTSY
# Assay: Receptor Selection and Amplification Technology (R-SAT) functional receptor assay
# Type: cell-based
# Conditions: for EC50: NIH3T3 cells transfected with PAR2, negative log of EC50 (molar); for Emax: percent maximum activation relative to the ligand SLIGRL, read-out: % Efficacy
# Protocol: The functional receptor assay, Receptor Selection and Amplification Technology (R-SAT), was used to investigate the pharmacological properties of known and novel PAR2 compounds. R-SAT is disclosed in U.S. Pat. Nos. 5,707,798, 5,912,132, and 5,955,281, all of which are hereby incorporated herein by reference in their entirety, including any drawings.
# Briefly, NIH3T3 cells were grown in 96 well tissue culture plates to 70-80% confluence. Cells were transfected for 16-20 h with plasmid DNAs using Polyfect (Qiagen Inc.) using the manufacturer's protocols. R-SATs were generally performed with 4 ng/well of receptor and 20 ng/well of β-galactosidase plasmid DNA. All receptor constructs used were in the pSI-derived mammalian expression vector (Promega Inc). The PAR2 gene was amplified by PCR from genomic DNA using oligodeoxynucleotide primers based on the published sequence (GenBank Accession # Z49993 and Z49994). For large-scale transfections, cells were transfected for 16-20 h, then trypsinized and frozen in DMSO. Frozen cells were later thawed, plated at ˜10,000 cells per well of a 96 half-area well plate that contained drug. With both methods, cells were then grown in a humidified atmosphere with 5% ambient CO2 for five days. Media was then removed from the plates and marker gene activity was measured by the addition of the β-galactosidase substrate o-nitrophenyl β-D-galactopyranoside (ONPG) in PBS with 0.5% NP-40. The resulting colorimetric reaction was measured using a spectrophotometric plate reader (Titertek Inc.) at 420 nm. All data was analyzed using the XLFit (IDBSm) computer program. Efficacy is the percent maximum activation compared to activation by a control compound (SLIGRLm). pEC50 is the negative of the log(EC50), where EC50 is the calculated as a molar concentration (M) that produces 50% maximal activation.
# These experiments provide a molecular profile, or fingerprint, for each of these agents at the human PAR2.
# Efficacy is relative to the ligand SLIGRL.
EC50,Emax,SMILES
39.8 nM,134%,"CC(=NNC(=O)C1C(=O)NCC1c1ccccc1)c1cccc(Br)c1 (mixture of isomers) [Compound 3, 2-Oxo-4-phenyl-3-pyrrolidinecarboxylic acid [1-(3-bromo-phenyl)-(E/Z)-ethylidene]-hydrazide]"
631 nM,87%,"CC(=NNC(=O)C1C(=O)NCC1c1ccccc1)c1ccc(Br)s1 (mixture of isomers) [Compound 4, 2-Oxo-4-phenyl-3-pyrrolidinecarboxylic acid [1-(5-bromo-thiophen-2-yl)-(E/Z)-ethylidene]-hydrazide]"
1580 nM,52%,"CC(=NNC(=O)C1C(=O)NCC1c1ccccc1)c1cccs1 (mixture of isomers) [Compound 5, 2-Oxo-4-phenyl-3-pyrrolidinecarboxylic acid [1-(thiophen-2-yl)-(E/Z)-ethylidene]-hydrazide]"
398 nM,109%,"CC(=NNC(=O)C1C(=O)NCC1c1ccccc1)c1cc(Br)cs1 (mixture of isomers) [Compound 6, 2-Oxo-4-phenyl-3-pyrrolidinecarboxylic acid [1-(4-bromo-thiophen-2-yl)-(E/Z)-ethylidene]-hydrazide]"
794 nM,106%,"CC(=NNC(=O)C1C(=O)NCC1c1ccccc1)c1cncc(Br)c1 (mixture of isomers) [Compound 7, 2-Oxo-4-phenyl-3-pyrrolidinecarboxylic acid [1-(5-bromo-pyridine-3-yl)-(E/Z)-ethylidene]-hydrazide]"
